Measurements from the supplement of paper PMC10307832.

Legend:
Assay in all cases: relative viability (nuclei count vs DMSO), 5 days (fraction); higher = more cells survive
Bortezomib + Foretinib = compound: CC(C)C[C@H](NC(=O)[C@H](Cc1ccccc1)NC(=O)c1cnccn1)B(O)O [Bortezomib] + COc1cc2c(Oc3ccc(NC(=O)C4(C(=O)Nc5ccc(F)cc5)CC4)cc3F)ccnc2cc1OCCCN1CCOCC1 [Foretinib] (partner 0.25 µM)
How it was run: (§1)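 The day after seeding in 1536-well plates, lung cancer cell lines were treated by pin tool with a single drug, or with a fixed anchor-drug dose together with five library-drug doses (not always all listed) in √10 steps. After 5 days, a combined fix-and-stain solution (final 0.05% Triton X-100, 1% formaldehyde, 1 ug/ml Hoechst) was added. Nuclei counted on 4× images gave relative viability as treated counts over vehicle counts, reported as the median of duplicate plates.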

[1] = compound: CC1=CC(=NN1)NC2=CC(=NC(=N2)/C=C/C3=CC=CC=C3)N4CCN(CC4)C + COc1cc2c(Oc3ccc(NC(=O)C4(C(=O)Nc5ccc(F)cc5)CC4)cc3F)ccnc2cc1OCCCN1CCOCC1 [Foretinib] (partner 0.25 µM)
How it was run: as §1

Obatoclax + Vorinostat = compound: COC1=CC(c2cc3ccccc3[nH]2)=N/C1=C\c1[nH]c(C)cc1C [Obatoclax] + O=C(CCCCCCC(=O)Nc1ccccc1)NO [Vorinostat] (partner 1 µM)
How it was run: as §1

[2] = compound: CC1=CC(=NN1)NC2=CC(=NC(=N2)/C=C/C3=CC=CC=C3)N4CCN(CC4)C + CC1(C)CCC(c2ccc(Cl)cc2)=C(CN2CCN(c3ccc(C(=O)NS(=O)(=O)c4ccc(N[C@H](CCN5CCOCC5)CSc5ccccc5)c(S(=O)(=O)C(F)(F)F)c4)cc3)CC2)C1 [Navitoclax] (partner 0.5 µM)
How it was run: as §1

Cell Line	relative viability (Bortezomib + Foretinib; first compound 0.0002 µM)	relative viability (Bortezomib + Foretinib; first compound 0.000632 µM)	relative viability (Bortezomib + Foretinib; first compound 0.002 µM)	relative viability (Bortezomib + Foretinib; first compound 0.006325 µM)	relative viability (Bortezomib + Foretinib; first compound 0.02 µM)	relative viability ([1]; first compound 0.08 µM)	relative viability ([1]; first compound 0.253 µM)	relative viability ([1]; first compound 0.8 µM)	relative viability ([1]; first compound 2.53 µM)	relative viability ([1]; first compound 8 µM)	relative viability (Obatoclax + Vorinostat; first compound 0.01 µM)	relative viability (Obatoclax + Vorinostat; first compound 0.03162 µM)	relative viability (Obatoclax + Vorinostat; first compound 0.1 µM)	relative viability (Obatoclax + Vorinostat; first compound 0.3162 µM)	relative viability (Obatoclax + Vorinostat; first compound 1 µM)	relative viability ([2]; first compound 0.08 µM)	relative viability ([2]; first compound 0.253 µM)	relative viability ([2]; first compound 0.8 µM)	relative viability ([2]; first compound 2.53 µM)	relative viability ([2]; first compound 8 µM)
LCLC-103H	0.679	0.698	0.268	0.162	0.13	0.76	0.93	0.639	0.305	0.154	0.791	0.676	0.715	0.756	0.799					
LK-2	0.982	1.39	1.12	0.161	0.165	1.35	1.02	1	0.382	0.153	0.3	0.247	0.253	0.296	0.411	0.821	1.03	0.711	0.247	0.133
NCI-H358	0.538	0.647	0.642	0.0816	0.0663	0.705	0.886	0.307	0.145	0.0554	0.661	0.73	0.595	0.183	0.141					
NCI-H522											0.891	0.794	0.793	0.967	0.973					
NCI-H661	1.04	1.03	1.01	0.559	0.219	0.997		1.01	0.576	0.362	0.734	0.789	0.81	0.711	0.552					
NCI-H1299	1.09	1.06	1.17	0.416	0.121	1.04	1.06	1.1	0.4	0.186						1.04	1.13	1.03	0.863	0.243
NCI-H1563	0.874	0.966	0.803	0.526	0.475	0.903	0.923	0.87	0.746	0.565										
NCI-H1623	0.831	0.992	0.803	0.473	0.344	0.817	0.94	0.886	0.803	0.533										
NCI-H1648											0.557	0.479	0.739	0.357	0.822					
NCI-H1703	0.324	0.342	0.211	0.153	0.176	0.331	0.362	0.291	0.209	0.211						0.929	0.965	0.283	0.134	0.108
NCI-H1792																0.558	0.599	0.611	0.437	0.102
NCI-H2342	1.02	0.945	0.829	0.929	0.34	0.918	1.06	1.14	1.01	0.578	0.767	0.717	0.859	0.874	0.958					
SW 900	0.87	0.743	0.155	0.119	0.126	0.845	0.831	0.871	0.605	0.118	0.493	0.489	0.509	0.389	0.372					
